Where no end group is shown, it is not given here.

The first test has as its system Lgr5ECD-Fc.
Experiment: not given
Format: binding, human. The conditions noted are these: ratio of signal for target protein over BSA background.
“GCQQGYWYWQWFCKQDSDCLAGCVCGPNGFCG (also: bicyclic or more (positions not given here)) [Lgr5ECD-Fc EET I-II 7]”: the S/N worked out at 33.7.

“GPTQSPGGICGGIGYSGPTVCASGTTCQVLSPEYSQCLPGAS (also: bicyclic or more (positions not given here)) [Lgr5ECD-Fc CBD 7]”: the S/N is given as 34.9.

As for “GPTQSQYGLCGGIGYSGPTVCASGTTCQVLDPTTSQCLPGAS (also: bicyclic or more (positions not given here)) [Lgr5ECD-Fc CBD 15]”, the S/N is given as 8.9.

As to “GPTQSOYGMCGGIGYSGPTVCASGTTCQVLDPTTSQCLPGAS (bicyclic or more) [Lgr5ECD-Fc CBD 18]”, the S/N is 34.5.

As for “GCWVNFWMCKQDSDCLAGCVCRVLDVCG (also: bicyclic or more (positions not given here)) [Lgr5ECD-Fc EET I-II 26]”, the S/N was 11.7.

Consider “GCLYLGWLCKQDSDCLAGCVCDYFWYCVHqS (bicyclic or more) [Lgr5ECD-Fc EET I-II 25]”, for which the S/N was found to be 19.5.

As to “GPTQSVYGMCGGIGYSGPTVCASGTTCQVLDPTTSQCLPGAS (also: bicyclic or more (positions not given here)) [Lgr5ECD-Fc CBD 3]”, the S/N is reported as 41.0.

On to “GCYHGYWYITWFCKQDSDCLAGCVCSQDEQCG (also: bicyclic or more (positions not given here)) [Lgr5ECD-Fc EET I-II 21]”, for which the S/N is given as 5.1.

Take “GPTQSTYGQCGGIGYSGPTVCASGTTCQVLWPALSWCLPGAS (also: bicyclic or more (positions not given here)) [Lgr5ECD-Fc CBD 1]”: the S/N came out at 43.0.

On to “GCLFRNLRMACKQDSDCLAGCVCGPNGFCG (also: bicyclic or more (positions not given here)) [Lgr5ECD-Fc EET I-II 24]”, for which the S/N is on record as 13.9.

Regarding “GCGYWWVQWFCKQDSDCLAGCVCGPNGFCD (also: bicyclic or more (positions not given here)) [Lgr5ECD-Fc EET I-II 17]”, the S/N was 10.3.

As for “GPTQSAYGQCGGIGYSGPTVCASGTTCQVLWPQVSWCLPGAS (also: bicyclic or more (positions not given here)) [Lgr5ECD-Fc CBD 13]”, the S/N stood at 14.2.

With “GCGFWYMQWFCKQDSDCLAGCVCDPMGNCG (also: bicyclic or more (positions not given here)) [Lgr5ECD-Fc EET I-II 6]”, the S/N is given as 36.2.

With “GCGYWWRTWFCKQDSDCLAGCVCGPNGFCG (also: bicyclic or more (positions not given here)) [Lgr5ECD-Fc EET I-II 13]”, the S/N is given as 17.1.

Take “GCGYWYRVWFCKQDSDCLAGCVCQEPGPCG (also: bicyclic or more (positions not given here)) [Lgr5ECD-Fc EET I-II 2]”: the S/N was determined as 44.3.

Turning to “GPTQSAFGPCGGIGYSGPTVCASGTTCQVLSPDVSQCLPGAS (also: bicyclic or more (positions not given here)) [Lgr5ECD-Fc CBD 6]”, the S/N stood at 36.0.

Regarding “GCGYWWRLWFCKQDSDCLAGCVCGPNGSCG (also: bicyclic or more (positions not given here)) [Lgr5ECD-Fc EET I-II 14]”, the S/N is listed as 15.3.

In the case of “GCASGYWWRMWFCKQDSDCLAGCVCGPNGFCG (also: bicyclic or more (positions not given here)) [Lgr5ECD-Fc EET I-II 15]”, the S/N is reported as 14.1.

Turning to “GPTQSLFGMCGGIGYSGPTVCASGTTCQVLDPTTSQCLPGAS (also: bicyclic or more (positions not given here)) [Lgr5ECD-Fc CBD 2]”, the S/N was found to be 42.7.

Take “GPTQSVYGICGGIGYSGPTVCASGTTCQVLSPEFSQCLPGAS (also: bicyclic or more (positions not given here)) [Lgr5ECD-Fc CBD 11]”: the S/N was found to be 23.1.

With “GCGYWYKQWFCKQDSDCLAGCVCGPNGFCG (also: bicyclic or more (positions not given here)) [Lgr5ECD-Fc EET I-II 8]”, the S/N amounted to 32.0.

Consider “GCGYWWKKWFCKQDSDCLAGCVCGPNSFCG (also: bicyclic or more (positions not given here)) [Lgr5ECD-Fc EET I-II 9]”, for which the S/N is given as 29.2.

As to “GCAVYQVYCKQDSDCLAGCVCAVKFHCG (also: bicyclic or more (positions not given here)) [Lgr5ECD-Fc EET I-II 12]”, the S/N was found to be 21.6.

Turning to “GPTQSVYGICGGIGYSGPTVCASGTTCQVLDPTTSQCLPGAS (also: bicyclic or more (positions not given here)) [Lgr5ECD-Fc CBD 12]”, the S/N came out at 18.9.

“GPTQSHYGLCGGIGYSGPTVCASGTTCQVLSPEFSQCLPGAS (also: bicyclic or more (positions not given here)) [Lgr5ECD-Fc CBD 10]”: the S/N is reported as 23.6.

In the case of “GCHEGYWWRQWFCKQDSDCLAGCVCGPNGFCG (also: bicyclic or more (positions not given here)) [Lgr5ECD-Fc EET I-II 16]”, the S/N worked out at 11.5.

“GCGYWWKQWFCKQDSDCLAGCVCGPNGFCG (also: bicyclic or more (positions not given here)) [Lgr5ECD-Fc EET I-II 10]”: the S/N is reported as 25.7.

Turning to “GCGYWYLEWFCKQDSDCLAGCVCGPNGFCG (also: bicyclic or more (positions not given here)) [Lgr5ECD-Fc EET I-II 18]”, the S/N is 9.9.

As to “GCMNSYWYNQWFCKQDSDCLAGCVCGPNGFCG (also: bicyclic or more (positions not given here)) [Lgr5ECD-Fc EET I-II 1]”, the S/N was 47.1.

For the substance “GPTQSTWGQCGGIGYSGPTVCASGTTCQVLWPTLSWCLPGAS (also: bicyclic or more (positions not given here)) [Lgr5ECD-Fc CBD 5]”, the S/N is reported as 38.3.

Take “GCGYWFYEWFCKQDSDCLAGCVCDPNGFCG (also: bicyclic or more (positions not given here)) [Lgr5ECD-Fc EET I-II 11]”: the S/N came out at 21.7.

The subject of a further test is ApoL1. In words: Spot phage ELISA, ApoL1. The format is binding, human. The conditions noted are these: ratio of signal for target protein over BSA background.
“GCKFHLWFCKQDSDCLAGCVCDPNGFCS (also: bicyclic or more (positions not given here)) [ApoL1 EET I-II 33]”: the S/N is listed as 15.3.

As for “GCKFWLHRYKQDSDCLAGCVCGPNVFG [ApoL1 EET I-II 4]”, the S/N came to 47.1.

Take “GCLFKRHFCKQDSDCLAGCVCVDQFPCG (also: bicyclic or more (positions not given here)) [ApoL1 EET I-II 21]”: the S/N was 35.5.

For the substance “GCKFMNWKCKQDSDCLAGCVCTENEPCG (also: bicyclic or more (positions not given here)) [ApoL1 EET I-II 2]”, the S/N came to 53.2.

As for “GCKFRLWFCKQDSYCLPGCVCGPNGFCG (also: bicyclic or more (positions not given here)) [ApoL1 EET I-II 42]”, the S/N came to 7.2.

Consider “GCKFRRWKCKQDSDCLAGCVCDPQGPCG (also: bicyclic or more (positions not given here)) [ApoL1 EET I-II 39]”, for which the S/N is given as 9.9.

“GCKFKWHFCKQDSDCLAGCVCQPHETCG (also: bicyclic or more (positions not given here)) [ApoL1 EET I-II 36]”: the S/N came out at 12.4.

For “GCKFWSRFCKQDSDCLAGCVCKNTDHCG (also: bicyclic or more (positions not given here)) [ApoL1 EET I-II 6]”, the S/N came out at 44.8.

As to “GCKFAKARCKQDSDCLAGCVCSPVRKCG (also: bicyclic or more (positions not given here)) [ApoL1 EET I-II 10]”, the S/N is 42.7.

With “GCKFRNWLCKQDSDCLAGCVCPWDTHCG (also: bicyclic or more (positions not given here)) [ApoL1 EET I-II 43]”, the S/N was found to be 6.6.

As for “GCMFLRHFNRCKQDSDCLAGCVCPHIPDCG (also: bicyclic or more (positions not given here)) [ApoL1 EET I-II 26]”, the S/N amounted to 24.0.

In the case of “GCRFRLWAMKSHCKQDSDCLAGCVCSDYSDCG (also: bicyclic or more (positions not given here)) [ApoL1 EET I-II 13]”, the S/N was 40.4.

With “GCRFKRHKCKQDSDCLAGCVCPEMSTCG (also: bicyclic or more (positions not given here)) [ApoL1 EET I-II 15]”, the S/N came to 40.2.

“GCRFWQWRCKQDSDCLAGCVCGWDRECG (also: bicyclic or more (positions not given here)) [ApoL1 EET I-II 32]”: the S/N turned out to be 17.1.

As to “GCHFKVWWCKQDSDCLAGCVCDPAVICG (also: bicyclic or more (positions not given here)) [ApoL1 EET I-II 44]”, the S/N is reported as 6.1.

Consider “GCGFWKWMHGCKQDSDCLAGCVCGPNGFCG (also: bicyclic or more (positions not given here)) [ApoL1 EET I-II 46]”, for which the S/N is on record as 3.9.

For “GCKFKRWTCKQDSDCLAGCVCEQPGMCG (also: bicyclic or more (positions not given here)) [ApoL1 EET I-II 19]”, the S/N was determined as 37.0.

“GCAFQFYLCKQDSDCLAGCVCGGTQSCG (also: bicyclic or more (positions not given here)) [ApoL1 EET I-II 38]”: the S/N came to 11.5.

On to “GCKMKKYMCKQDSDCLAGCVCHQQSKCG (also: bicyclic or more (positions not given here)) [ApoL1 EET I-II 40]”, for which the S/N amounted to 8.9.

As for “GCRFRQHWCKQDSDCLAGCVCLEQPECG (also: bicyclic or more (positions not given here)) [ApoL1 EET I-II 24]”, the S/N was determined as 30.3.

As for “GCMFQMHFCKQDSDCLAGCVCGMSDCCG [ApoL1 EET I-II 27]”, the S/N was determined as 23.7.
